Measurements published in patent US6642217B2, “Triterpenes having human antifungal and antiyeast activity” (Naturtek, LLC, priority 2000, dated 2003).

How the values were obtained:
Pityrosporum ovale [1] = assay: Direct addition method, solid compound in Sabouraud dextrose agar; format: cell-based; parameters: key: +++: Maximum Fungal Growth; ++: Moderate Fungal Growth; +: Minimum Fungal Growth; +/−: Very little Fungal Growth; −: No Fungal Growth; settings: 4 mg/mL of agar; 12th day after inoculation
Experimental: (§1) Direct addition method. Sabouraud dextrose agar was prepared according to the manufacturer's instructions and 5.0 ml was dispensed in each 100×25 mm tube. The tubes were autoclaved. To each tube containing 5.0 ml of liquid agar at 45° C., 20 mg of solid test compound was added, to give a final concentration of 4 mg/ml. The agar was solidified in slants. The fungal cultures were then innoculated. The slants were incubated at 25-28 ° C. for 10-12 days, and the growth of the fungus was recorded every second day. The results in Table 2 indicate growth at the 12th day of inoculation.

Microsporum canis [2] = assay: as above; format: cell-based; parameters: key: +++: Maximum Fungal Growth; ++: Moderate Fungal Growth; +: Minimum Fungal Growth; +/−: Very little Fungal Growth; −: No Fungal Growth; settings: 4 mg/mL of agar; 12th day after inoculation
Experimental: as §1

Trichophyton rubrum [3] = assay: as above; format: cell-based; parameters: key: +++: Maximum Fungal Growth; ++: Moderate Fungal Growth; +: Minimum Fungal Growth; +/−: Very little Fungal Growth; −: No Fungal Growth; settings: 4 mg/mL of agar; 12th day after inoculation
Experimental: as §1

Epidermophyton floccosum [4] = assay: as above; format: cell-based; parameters: key: +++: Maximum Fungal Growth; ++: Moderate Fungal Growth; +: Minimum Fungal Growth; +/−: Very little Fungal Growth; −: No Fungal Growth; settings: 4 mg/mL of agar; 12th day after inoculation
Experimental: as §1

Pityrosporum ovale [5] = assay: Direct addition into the Pityrosporum agar; format: cell-based; parameters: key to Pityrosporum ovale growth: +++: Maximum Growth; ++: Moderate Growth; +: Minimum Growth; +/−: Very Little Growth; −: No Growth; settings: for Pityrosporum ovale growth: 4 mg/ml in the agar, 18 hours after inoculation
Experimental: as §1, with “The slants were incubated at 25-28 ° C. for 10-12 days, and the growth of the fungus was recorded every second day. The results in Table 2 indicate growth at the 12th day of inoculation.” left out

Microsporum audouinni [6] = assay: Direct addition method, solid compound in Sabouraud dextrose agar; format: cell-based, Microsporum audouinii; parameters: key to Fungal growth: +++: Maximum Fungal Growth; ++: Moderate Fungal Growth; +: Minimum Fungal Growth; +/−: Very little Fungal Growth; −: No Fungal Growth; settings: for Fungal growth: 4 mg/mL of agar, 12th day after inoculation
Experimental: as §1

Trichophyton tonsuran = assay: Agar dilution method, growth on Sabouraud dextrose agar slants; format: cell-based, Trichophyton tonsurans; parameters: key: +++: Maximum Fungal Growth; ++: Moderate Fungal Growth; +: Minimum Fungal Growth; +/−: Very little Fungal Growth; −: No Fungal Growth; settings: 12th day after inoculation
Experimental: (§2) Agar dilution method. Sabouraud Dextrose Agar (Difco Laboratories, Michigan) was prepared according to the manufacturer's instructions. Five ml was dispensed in a 100×25 mm tube and autoclaved. To each tube containing 5.0 ml of liquid agar at 45° C., 0.5, 0.25, 0.12, or 0.063 ml of a DMSO solution of the compound was added to give the final indicated concentrations in Table 2. The agar was then solidified in slants. Fungal cultures were inoculated. The slants were incubated at 25-28° C. for 10-12 days, and the growth of the fungus was recorded every second day.

Pityrosporum ovale [7] = assay: as above; format: cell-based; parameters: key: +++: Maximum Fungal Growth; ++: Moderate Fungal Growth; +: Minimum Fungal Growth; +/−: Very little Fungal Growth; −: No Fungal Growth; settings: 12th day after inoculation
Experimental: as §2

Microsporum canis [8] = assay: as above; format: cell-based; parameters: key: +++: Maximum Fungal Growth; ++: Moderate Fungal Growth; +: Minimum Fungal Growth; +/−: Very little Fungal Growth; −: No Fungal Growth; settings: 12th day after inoculation
Experimental: as §2

Trichophyton rubrum [9] = assay: as above; format: cell-based; parameters: key: +++: Maximum Fungal Growth; ++: Moderate Fungal Growth; +: Minimum Fungal Growth; +/−: Very little Fungal Growth; −: No Fungal Growth; settings: 12th day after inoculation
Experimental: as §2

Microsporum gypseum = assay: as above; format: cell-based; parameters: key: +++: Maximum Fungal Growth; ++: Moderate Fungal Growth; +: Minimum Fungal Growth; +/−: Very little Fungal Growth; −: No Fungal Growth; settings: 12th day after inoculation
Experimental: as §2

Epidermophyton floccosum [10] = assay: as above; format: cell-based; parameters: key to Fungal growth: +++: Maximum Fungal Growth; ++: Moderate Fungal Growth; +: Minimum Fungal Growth; +/−: Very little Fungal Growth; −: No Fungal Growth; settings: 12th day after inoculation
Experimental: as §2

Microsporum audouinni [11] = assay: as above; format: cell-based, Microsporum audouinii; parameters: key: +++: Maximum Fungal Growth; ++: Moderate Fungal Growth; +: Minimum Fungal Growth; +/−: Very little Fungal Growth; −: No Fungal Growth; settings: 12th day after inoculation
Experimental: as §2

[12] = system: Trichophyton mentagrophyte; assay: as above; format: cell-based, Trichophyton mentagrophytes; parameters: key to Fungal growth: +++: Maximum Fungal Growth; ++: Moderate Fungal Growth; +: Minimum Fungal Growth; +/−: Very little Fungal Growth; −: No Fungal Growth; settings: for Fungal growth: 12th day after inoculation
Experimental: as §2

Microsporum audouinii = assay: Summary of anti-fungal assays (direct addition, agar dilution, liquid culture); format: cell-based; settings: stated in words (Tables 1a/1b, text to Table 5)
Experimental: This example summarizes the results of various other assays of the anti-fungal activity of betulin derivatives. Table 5 summarizes results using different assay methods—direct addition, agar dilution, and direct addition to liquid culture, as disclosed in the previous three Examples. In some cases, only one type of assay was done with a compound. In other cases, the compound was tested by multiple assays.

CC1(C)CCC23CCC4(C)C(CCC5C6(C)CCC(OC(=O)CN)C(C)(C)C6CCC54C)C2C1OC3 (stereo not shown) [Allobetulin-3-glycine]
Fungal growth (Pityrosporum ovale [1]): −
Fungal growth (Microsporum canis [2]): +
Fungal growth (Trichophyton rubrum [3]): ++
Fungal growth (Epidermophyton floccosum [4]): −
Pityrosporum ovale growth (Pityrosporum ovale [5]): +
Fungal growth (Microsporum audouinni [6]): +

C=C(C)[C@@H]1CC[C@]2(COC(=O)COCC(=O)O)CC[C@]3(C)[C@H](CC[C@@H]4[C@@]5(C)CC[C@H](OC(=O)COCC(=O)O)C(C)(C)[C@@H]5CC[C@]43C)[C@@H]12 [Betulin-3,28-didiglycolate]
Fungal growth (Trichophyton tonsuran; 125 μg/ml): ++
Fungal growth (Trichophyton tonsuran; 250 μg/ml): +
Fungal growth (Trichophyton tonsuran; 500 μg/ml): +
Fungal growth (Trichophyton tonsuran; 1000 μg/ml): −
Fungal growth (Pityrosporum ovale [7]; 125 μg/ml): +++
Fungal growth (Pityrosporum ovale [7]; 250 μg/ml): +++
Fungal growth (Pityrosporum ovale [7]; 500 μg/ml): ++
Fungal growth (Pityrosporum ovale [7]; 1000 μg/ml): +/−
Fungal growth (Microsporum canis [8]; 125 μg/ml): +++
Fungal growth (Microsporum canis [8]; 250 μg/ml): +++
Fungal growth (Microsporum canis [8]; 500 μg/ml): +
Fungal growth (Microsporum canis [8]; 1000 μg/ml): −
Fungal growth (Trichophyton rubrum [9]; 125 μg/ml): ++
Fungal growth (Trichophyton rubrum [9]; 250 μg/ml): +
Fungal growth (Trichophyton rubrum [9]; 500 μg/ml): +
Fungal growth (Trichophyton rubrum [9]; 1000 μg/ml): −
Fungal growth (Microsporum gypseum; 125 μg/ml): +++
Fungal growth (Microsporum gypseum; 250 μg/ml): +++
Fungal growth (Microsporum gypseum; 500 μg/ml): ++
Fungal growth (Microsporum gypseum; 1000 μg/ml): −
Fungal growth (Epidermophyton floccosum [10]; 125 μg/ml): ++
Fungal growth (Epidermophyton floccosum [10]; 250 μg/ml): +
Fungal growth (Epidermophyton floccosum [10]; 500 μg/ml): −
Fungal growth (Epidermophyton floccosum [10]; 1000 μg/ml): −
Fungal growth (Microsporum audouinni [11]; 125 μg/ml): ++
Fungal growth (Microsporum audouinni [11]; 250 μg/ml): ++
Fungal growth (Microsporum audouinni [11]; 500 μg/ml): −
Fungal growth (Microsporum audouinni [11]; 1000 μg/ml): −
Fungal growth ([12]; 125 μg/ml): +
Fungal growth ([12]; 250 μg/ml): +
Fungal growth ([12]; 500 μg/ml): +/−
Fungal growth ([12]; 1000 μg/ml): −
best antifungal or anti-yeast activity by the agar dilution method ([12]; against Trichophyton mentagrophytes): against Trichophyton mentagrophytes

C=C(C)[C@@H]1CC[C@]2(COC(=O)CCCC(=O)O)CC[C@]3(C)[C@H](CC[C@@H]4[C@@]5(C)CC[C@H](OC(=O)CCCC(=O)O)C(C)(C)[C@@H]5CC[C@]43C)[C@@H]12 [Betulin-3,28-diglutarate]
Fungal growth (Pityrosporum ovale [1]): −
Fungal growth (Microsporum canis [2]): +
Fungal growth (Trichophyton rubrum [3]): +
Fungal growth (Epidermophyton floccosum [4]): −
Growth inhibition of Pityrosporum ovale by the direct addition method (Pityrosporum ovale [5]; 4 mg/ml): inhibited the growth
Pityrosporum ovale growth (Pityrosporum ovale [5]): +/−
Fungal growth (Microsporum audouinni [6]): +

C=C(C)[C@@H]1CC[C@]2(COC(=O)/C=C\C(=O)O)CC[C@]3(C)[C@H](CC[C@@H]4[C@@]5(C)CC[C@H](OC(=O)/C=C\C(=O)O)C(C)(C)[C@@H]5CC[C@]43C)[C@@H]12 [Betulin-3,28-dimaleate]
Fungal growth (Pityrosporum ovale [1]): −
Fungal growth (Microsporum canis [2]): +
Fungal growth (Trichophyton rubrum [3]): +
Fungal growth (Epidermophyton floccosum [4]): −
Active against Microsporum audouinii (Microsporum audouinii): Microsporum audouinii
Pityrosporum ovale growth (Pityrosporum ovale [5]): +
Fungal growth (Microsporum audouinni [6]): −
best anti-fungal or anti-yeast activity by the direct addition method (Microsporum audouinni [6]; against Microsporum audouinii): against Microsporum audouinii

C=C(C)C1CCC2(CO)CCC3(C)C(CCC4C5(C)CCC(OC(=O)C=CC(=O)O)C(C)(C)C5CCC43C)C12 (stereo not shown) [Betulin-3-maleate]
Fungal growth (Trichophyton tonsuran; 125 μg/ml): ++
Fungal growth (Trichophyton tonsuran; 250 μg/ml): ++
Fungal growth (Trichophyton tonsuran; 500 μg/ml): +
Fungal growth (Trichophyton tonsuran; 1000 μg/ml): −
Fungal growth (Pityrosporum ovale [7]; 125 μg/ml): +++
Fungal growth (Pityrosporum ovale [7]; 250 μg/ml): +++
Fungal growth (Pityrosporum ovale [7]; 500 μg/ml): ++
Fungal growth (Pityrosporum ovale [7]; 1000 μg/ml): +/−
Fungal growth (Microsporum canis [8]; 125 μg/ml): +
Fungal growth (Microsporum canis [8]; 250 μg/ml): +/−
Fungal growth (Microsporum canis [8]; 500 μg/ml): +/−
Fungal growth (Microsporum canis [8]; 1000 μg/ml): −
Fungal growth (Trichophyton rubrum [9]; 125 μg/ml): ++
Fungal growth (Trichophyton rubrum [9]; 250 μg/ml): ++
Fungal growth (Trichophyton rubrum [9]; 500 μg/ml): +
Fungal growth (Trichophyton rubrum [9]; 1000 μg/ml): −
Fungal growth (Microsporum gypseum; 125 μg/ml): +++
Fungal growth (Microsporum gypseum; 250 μg/ml): ++
Fungal growth (Microsporum gypseum; 500 μg/ml): ++
Fungal growth (Microsporum gypseum; 1000 μg/ml): −
Fungal growth (Epidermophyton floccosum [10]; 125 μg/ml): ++
Fungal growth (Epidermophyton floccosum [10]; 250 μg/ml): +
Fungal growth (Epidermophyton floccosum [10]; 500 μg/ml): −
Fungal growth (Epidermophyton floccosum [10]; 1000 μg/ml): −
Fungal growth (Microsporum audouinni [11]; 125 μg/ml): +/−
Fungal growth (Microsporum audouinni [11]; 250 μg/ml): +/−
Fungal growth (Microsporum audouinni [11]; 500 μg/ml): −
Fungal growth (Microsporum audouinni [11]; 1000 μg/ml): −
Fungal growth ([12]; 125 μg/ml): ++
Fungal growth ([12]; 250 μg/ml): +
Fungal growth ([12]; 500 μg/ml): +/−
Fungal growth ([12]; 1000 μg/ml): −

COC1=CC(=O)C[C@@H](C)[C@]12Oc1c(Cl)c(OC)cc(OC)c1C2=O [Griseofulvin, reference compound]
Fungal growth (Pityrosporum ovale [1]): −
Fungal growth (Microsporum canis [2]): −
Fungal growth (Trichophyton rubrum [3]): −
Fungal growth (Epidermophyton floccosum [4]): −
Fungal growth (Trichophyton tonsuran; 125 μg/ml): +/−
Fungal growth (Trichophyton tonsuran; 250 μg/ml): +/−
Fungal growth (Trichophyton tonsuran; 500 μg/ml): −
Fungal growth (Trichophyton tonsuran; 1000 μg/ml): −
Fungal growth (Pityrosporum ovale [7]; 125 μg/ml): +++
Fungal growth (Pityrosporum ovale [7]; 250 μg/ml): +++
Fungal growth (Pityrosporum ovale [7]; 500 μg/ml): ++
Fungal growth (Pityrosporum ovale [7]; 1000 μg/ml): −
Fungal growth (Microsporum canis [8]; 125 μg/ml): +/−
Fungal growth (Microsporum canis [8]; 250 μg/ml): +/−
Fungal growth (Microsporum canis [8]; 500 μg/ml): −
Fungal growth (Microsporum canis [8]; 1000 μg/ml): −
Fungal growth (Trichophyton rubrum [9]; 125 μg/ml): +/−
Fungal growth (Trichophyton rubrum [9]; 250 μg/ml): +/−
Fungal growth (Trichophyton rubrum [9]; 500 μg/ml): −
Fungal growth (Trichophyton rubrum [9]; 1000 μg/ml): −
Fungal growth (Microsporum gypseum; 125 μg/ml): +/−
Fungal growth (Microsporum gypseum; 250 μg/ml): +/−
Fungal growth (Microsporum gypseum; 500 μg/ml): −
Fungal growth (Microsporum gypseum; 1000 μg/ml): −
Pityrosporum ovale growth (Pityrosporum ovale [5]): +
Fungal growth (Epidermophyton floccosum [10]; 125 μg/ml): ++
Fungal growth (Epidermophyton floccosum [10]; 250 μg/ml): +
Fungal growth (Epidermophyton floccosum [10]; 500 μg/ml): −
Fungal growth (Epidermophyton floccosum [10]; 1000 μg/ml): −
Fungal growth (Microsporum audouinni [11]; 125 μg/ml): −
Fungal growth (Microsporum audouinni [11]; 250 μg/ml): −
Fungal growth (Microsporum audouinni [11]; 500 μg/ml): −
Fungal growth (Microsporum audouinni [11]; 1000 μg/ml): −
Fungal growth ([12]; 125 μg/ml): ++
Fungal growth ([12]; 250 μg/ml): +
Fungal growth ([12]; 500 μg/ml): −
Fungal growth ([12]; 1000 μg/ml): −
Fungal growth (Microsporum audouinni [6]): −

C=C(C)C1CCC2(C)CCC3(C)C(CCC4C5(C)CCC(OC(=O)CCC(=O)O)C(C)(C)C5CCC43C)C12 (stereo not shown) [Lupeol-3-succinate]
Fungal growth (Pityrosporum ovale [1]): −
Fungal growth (Microsporum canis [2]): +
Fungal growth (Trichophyton rubrum [3]): +
Fungal growth (Epidermophyton floccosum [4]): −
Pityrosporum ovale growth (Pityrosporum ovale [5]): +
Fungal growth (Microsporum audouinni [6]): +
